Our source for the Ki values is US20200199127A1, “(HETERO)ARYLALKYLAMINO-PYRAZOLOPYRIDAZINE DERIVATIVES HAVING MULTIMODAL ACTIVITY AGAINST PAIN” (priority 2017, published 2020).

In assay [1] the target is Human norepinephrine transporter (NET) (Homo sapiens, UniProt P23975). As to the kind of experiment: Binding assay to human norepinephrine transporter (NET), [3H]-Nisoxetin. As to conditions: human NET enriched membranes, 5 nM [3H]-Nisoxetin; Ki as class symbol. The method, then:
Binding Assay to Human Norepinephrine Transporter (NET).
Human norepinephrine transporter (NET) enriched membranes (5 μg) were incubated with 5 nM of radiolabeled [3H]-Nisoxetin in assay buffer containing 50 mM Tris-HCl, 120 mM NaCl, 5 mM KCl, pH 7.4.
NSB (non specific binding) was measured by adding 10 μM of desipramine. The binding of the test compound was measured at five different concentrations.. After 60 min incubation at 4° C., binding reaction was terminated by filtering through Multiscreen GF/C (Millipore) presoaked in 0.5% polyethyleneimine in Vacuum Manifold Station, followed by 3 washes with ice-cold filtration buffer containing 50 mM Tris-HCl, 0.9% NaCl, pH 7.4.
Filter plates were dried at 60° C. for 1 hour and 30 μl of scintillation cocktail were added to each well before radioactivity reading.

In assay [2] the target is Human α2δ-1 subunit of Cav2.2 calcium channel (Homo sapiens, UniProt P54289). As to the kind of experiment: Human α2δ-1 subunit of Cav2.2 calcium channel assay, [3H]-Gabapentin binding. Conditions: human α2δ-1 enriched membranes, 15 nM [3H]-Gabapentin; Ki as class symbol. On the procedure: Human α2δ-1 Subunit of Cav2.2 Calcium Channel Assay
Human α2δ-1 enriched membranes (2.5 μg) were incubated with 15 nM of radiolabeled [3H]-Gabapentin in assay buffer containing Hepes-KOH 10 mM, pH 7.4. NSB (non specific binding) was measured by adding 10 μM pregabalin. The binding of the test compound was measured at five different concentrations. After 60 min incubation at 27° C., binding reaction was terminated by filtering through Multiscreen GF/C (Millipore) presoaked in 0.5% polyethyleneimine in Vacuum Manifold Station, followed by 3 washes with ice-cold filtration buffer containing 50 mM Tris-HCl, pH 7.4. Filter plates were dried at 60° C. for 1 hour and 30 μl of scintillation cocktail were added to each well before radioactivity reading. Readings were performed in a Trilux 1450 Microbeta radioactive counter (Perkin Elmer).

Chain of Human norepinephrine transporter (NET) (P23975 whole entry): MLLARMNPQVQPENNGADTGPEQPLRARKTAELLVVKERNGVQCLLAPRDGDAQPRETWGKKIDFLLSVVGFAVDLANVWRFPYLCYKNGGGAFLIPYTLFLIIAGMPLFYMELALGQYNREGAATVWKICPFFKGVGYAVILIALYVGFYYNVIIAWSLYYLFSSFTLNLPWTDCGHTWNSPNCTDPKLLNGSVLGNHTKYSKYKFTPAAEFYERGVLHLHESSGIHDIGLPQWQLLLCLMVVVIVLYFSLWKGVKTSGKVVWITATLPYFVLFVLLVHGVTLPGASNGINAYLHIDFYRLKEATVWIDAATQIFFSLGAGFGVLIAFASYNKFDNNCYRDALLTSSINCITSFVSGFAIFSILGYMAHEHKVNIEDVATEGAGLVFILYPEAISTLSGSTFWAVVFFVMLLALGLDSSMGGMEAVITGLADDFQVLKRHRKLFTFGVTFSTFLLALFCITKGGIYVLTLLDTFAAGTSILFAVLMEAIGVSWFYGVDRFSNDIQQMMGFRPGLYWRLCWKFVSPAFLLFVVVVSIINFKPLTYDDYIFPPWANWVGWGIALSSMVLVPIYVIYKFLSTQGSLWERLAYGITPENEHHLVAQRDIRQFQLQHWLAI
Chain of Human α2δ-1 subunit of Cav2.2 calcium channel (P54289 25-1103): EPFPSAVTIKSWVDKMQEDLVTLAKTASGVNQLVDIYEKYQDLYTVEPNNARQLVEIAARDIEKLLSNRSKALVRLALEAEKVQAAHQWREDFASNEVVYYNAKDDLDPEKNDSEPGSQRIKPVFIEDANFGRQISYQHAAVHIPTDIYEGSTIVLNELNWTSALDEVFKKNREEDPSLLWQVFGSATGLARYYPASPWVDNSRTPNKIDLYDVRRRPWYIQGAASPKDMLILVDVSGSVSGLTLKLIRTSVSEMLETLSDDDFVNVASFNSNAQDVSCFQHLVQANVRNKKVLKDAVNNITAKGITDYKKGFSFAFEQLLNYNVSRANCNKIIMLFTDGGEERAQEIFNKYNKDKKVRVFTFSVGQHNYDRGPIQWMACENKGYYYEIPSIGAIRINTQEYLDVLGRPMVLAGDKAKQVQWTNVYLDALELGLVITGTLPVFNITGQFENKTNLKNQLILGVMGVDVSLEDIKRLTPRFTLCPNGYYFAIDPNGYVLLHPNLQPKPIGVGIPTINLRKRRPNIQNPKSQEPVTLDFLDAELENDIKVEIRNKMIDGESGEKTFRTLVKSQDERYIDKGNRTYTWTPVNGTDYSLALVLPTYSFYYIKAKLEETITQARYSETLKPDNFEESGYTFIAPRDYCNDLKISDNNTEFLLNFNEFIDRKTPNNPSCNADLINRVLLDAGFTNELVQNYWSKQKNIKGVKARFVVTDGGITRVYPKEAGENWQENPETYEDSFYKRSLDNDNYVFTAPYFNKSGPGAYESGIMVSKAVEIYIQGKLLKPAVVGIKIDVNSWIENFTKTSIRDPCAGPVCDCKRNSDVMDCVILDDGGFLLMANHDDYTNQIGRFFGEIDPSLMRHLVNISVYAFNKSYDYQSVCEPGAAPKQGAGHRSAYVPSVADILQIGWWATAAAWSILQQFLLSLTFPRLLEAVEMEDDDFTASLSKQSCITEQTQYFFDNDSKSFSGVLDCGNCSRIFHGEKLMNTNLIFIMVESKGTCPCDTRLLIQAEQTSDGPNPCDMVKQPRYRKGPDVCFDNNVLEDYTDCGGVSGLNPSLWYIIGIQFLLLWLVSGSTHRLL

As for `CCOc1ccc(-n2nc3c(N(C)C(CCO)c4ccccc4)nnc(C)c3c2C)c(F)c1` (stereo not shown) [Example 54, 3-((2-(4-ethoxy-2-fluorophenyl)-3,4-dimethyl-2H-pyrazolo[3,4-d]pyridazin-7-yl)(methyl)amino)-3-phenylpropan-1-ol], the results for the Ki in assay [1] and in assay [2] were over 1 µM and 0.5 to 5 µM, respectively.

As to `CCOc1ccc(-n2nc3c(N(CCO)Cc4ccccn4)nnc(C)c3c2C)c(F)c1` [Example 56, 2-((2-(4-ethoxy-2-fluorophenyl)-3,4-dimethyl-2H-pyrazolo[3,4-d]pyridazin-7-yl)(pyridin-2-ylmethyl)amino)ethanol], the Ki in assay [1] was in the range of 0.5 to 1 µM; in assay [2], 0.5 to 5 µM.

With `CCOc1ccc(-n2nc3c(N(CCO)Cc4cccnc4)nnc(C)c3c2C)c(F)c1` [Example 57, 2-((2-(4-ethoxy-2-fluorophenyl)-3,4-dimethyl-2H-pyrazolo[3,4-d]pyridazin-7-yl)(pyridin-3-ylmethyl)amino)ethanol], the figures for the Ki in assay [1] and in assay [2] were over 1 µM and at least 5 µM, respectively.

`CCOc1ccc(-n2nc3c(N(C)CCn4cnc5ccccc54)nnc(C)c3c2C)c(F)c1` [Example 58, N-(2-(1H-Benzo[d]imidazol-1-yl)ethyl)-2-(4-ethoxy-2-fluorophenyl)-N,3,4-trimethyl-2H-pyrazolo[3,4-d]pyridazin-7-amine]: the Ki in assay [1] was over 1 µM; in assay [2] it was 0.5 to 5 µM.

Consider `CCOc1ccc(-n2nc3c(NCCC4(c5ccccn5)CCOC5(CCCC5)C4)nnc(C)c3c2C)c(F)c1` (stereo not shown) [Example 59, 2-(4-ethoxy-2-fluorophenyl)-3,4-dimethyl-N-(2-(9-(pyridin-2-yl)-6-oxaspiro[4.5]decan-9-yl)ethyl)-2H-pyrazolo[3,4-d]pyridazin-7-amine], for which the Ki in assay [1] is over 1 µM; in assay [2], at least 5 µM.

In general, Ki refers to the equilibrium dissociation constant of an inhibitor or competing ligand from its target.
